Source: patent US20220218677A1, “ARYLQUINOZILINE DERIVATIVES AS ALPHA2-ADRENOCEPTOR SUBTYPE C (ALPHA-2C) ANTAGONISTS FOR THE TREATMENT OF SLEEP APNEA” (Bayer Aktiengesellschaft, priority 2019, published 2022)

Test system: upper airway collapsibility in anaesthetized, spontaneously breathing pigs
Test: pig model of obstructive sleep apnea (OSA): upper airway collapsibility under negative pressure
Assay type: in vivo, German Landrace pigs
Conditions: for Percent pigs without collaps −50 cm H2O / Percent pigs without collaps −100 cm H2O / Percent pigs without collaps −150 cm H2O: i.v. bolus 0.3 mg/kg then i.v. infusion 0.1 mg/kg/h
Source text: The therapeutic potential of the compounds of formula (I) according to the present invention in sleep apnea has been assessed preclinically in a pig model of obstructive sleep apnea (OSA).
Using negative pressure, it is possible to induce collapse and thus obstruction of the upper respiratory tract in anaesthetized, spontaneously breathing pigs (Wirth K. J. et al., Sleep 36(5) (2013) pp. 699-708).
German Landrace pigs are used for the model. The pigs are anaesthetized and tracheotomized. Two tracheal are inserted into the trachea, one into the rostral part and the other into the caudal part of the trachea. Using a connection piece, the rostral cannula is connected to a tube to the negative pressure device and to the distal tracheal cannula. The distal tracheal cannula is additionally connected to a tube with an open end to atmosphere via a connection piece that served for free tracheal breathing, circumventing the upper airway. By appropriate opening and clamping of those tubes breathing can be switched from nasal breathing to breathing through the caudal tracheal cannula, circumventing the upper airway, and the (isolated) upper airway can be connected to the negative pressure device, causing airflow in the inspiratory direction.
At certain points in time, the collapsibility of the upper respiratory tract is tested by having the pig breathe via the caudal cannula and applying negative pressures of −50, −100 and −150 cm water head (cm H2O) to the upper respiratory tract. This causes the upper respiratory tract to collapse, which manifests itself in an interruption of the airflow and a pressure drop in the tube system. This test is conducted prior to the administration of the test substance and at certain intervals after the administration of the test substance. An appropriately effective test substance can prevent this collapse of the respiratory tract in the inspiratory phase.
In this OSA pig model, systemic application of the α2-Adrenoceptor subtype C (alpha-2C) antagonists of formula (I) (1S,12bS)-1-(methoxymethyl)-1-methyl-[…][2,3-a]quinolizine with i.v. bolus injection of 0.3 mg/kg followed by an i.v. infusion of 0.1 mg/kg/h for four hours inhibited upper airway collapsibility at all negative pressures of −50, −100 and −150 cm for more than 6 hours (see Table 1, 2 and 3 and FIG. 1).

[1] = time 0 min (time of administration)

Q: Which results are given for `COC[C@@]1(C)CCCN2CCc3c(oc4ccccc34)[C@@H]21` [(1S,12bS)-1-(methoxymethyl)-1-methyl-1,3,4,6,7,12b-hexahydro-2H-[1]benzofuro[2,3-a]quinolizine]?
A: duration of inhibition of upper airway collapsibility (all negative pressures of −50, −100 and −150 cm, i.v. bolus 0.3 mg/kg followed by i.v. infusion 0.1 mg/kg/h for four hours): more than 6 hours; Percent pigs without collaps −50 cm H2O [1]: 0%; Percent pigs without collaps −100 cm H2O [1]: 0%; Percent pigs without collaps −150 cm H2O [1]: 0%; Percent pigs without collaps −50 cm H2O (time 10 min): 100%; Percent pigs without collaps −100 cm H2O (time 10 min): 100%; Percent pigs without collaps −150 cm H2O (time 10 min): 100%; Percent pigs without collaps −50 cm H2O (time 60 min): 100%; Percent pigs without collaps −100 cm H2O (time 60 min): 100%; Percent pigs without collaps −150 cm H2O (time 60 min): 100%; Percent pigs without collaps −50 cm H2O (time 120 min): 100%; Percent pigs without collaps −100 cm H2O (time 120 min): 100%; Percent pigs without collaps −150 cm H2O (time 120 min): 100%; Percent pigs without collaps −50 cm H2O (time 180 min): 100%; Percent pigs without collaps −100 cm H2O (time 180 min): 100%; Percent pigs without collaps −150 cm H2O (time 180 min): 100%; Percent pigs without collaps −50 cm H2O (time 240 min): 100%; Percent pigs without collaps −100 cm H2O (time 240 min): 100%; Percent pigs without collaps −150 cm H2O (time 240 min): 100%; Percent pigs without collaps −50 cm H2O (time 300 min): 100%; Percent pigs without collaps −100 cm H2O (time 300 min): 100%; Percent pigs without collaps −150 cm H2O (time 300 min): 100%
